Source: patent US9884063B2, “Amido-substituted azole compounds” (Bayer Pharma Aktiengesellschaft, priority 2014, dated 2018)

Biological target: T1, TNKS2 (Homo sapiens, UniProt Q9H2K2)
T1 sequence (Q9H2K2 1-1166): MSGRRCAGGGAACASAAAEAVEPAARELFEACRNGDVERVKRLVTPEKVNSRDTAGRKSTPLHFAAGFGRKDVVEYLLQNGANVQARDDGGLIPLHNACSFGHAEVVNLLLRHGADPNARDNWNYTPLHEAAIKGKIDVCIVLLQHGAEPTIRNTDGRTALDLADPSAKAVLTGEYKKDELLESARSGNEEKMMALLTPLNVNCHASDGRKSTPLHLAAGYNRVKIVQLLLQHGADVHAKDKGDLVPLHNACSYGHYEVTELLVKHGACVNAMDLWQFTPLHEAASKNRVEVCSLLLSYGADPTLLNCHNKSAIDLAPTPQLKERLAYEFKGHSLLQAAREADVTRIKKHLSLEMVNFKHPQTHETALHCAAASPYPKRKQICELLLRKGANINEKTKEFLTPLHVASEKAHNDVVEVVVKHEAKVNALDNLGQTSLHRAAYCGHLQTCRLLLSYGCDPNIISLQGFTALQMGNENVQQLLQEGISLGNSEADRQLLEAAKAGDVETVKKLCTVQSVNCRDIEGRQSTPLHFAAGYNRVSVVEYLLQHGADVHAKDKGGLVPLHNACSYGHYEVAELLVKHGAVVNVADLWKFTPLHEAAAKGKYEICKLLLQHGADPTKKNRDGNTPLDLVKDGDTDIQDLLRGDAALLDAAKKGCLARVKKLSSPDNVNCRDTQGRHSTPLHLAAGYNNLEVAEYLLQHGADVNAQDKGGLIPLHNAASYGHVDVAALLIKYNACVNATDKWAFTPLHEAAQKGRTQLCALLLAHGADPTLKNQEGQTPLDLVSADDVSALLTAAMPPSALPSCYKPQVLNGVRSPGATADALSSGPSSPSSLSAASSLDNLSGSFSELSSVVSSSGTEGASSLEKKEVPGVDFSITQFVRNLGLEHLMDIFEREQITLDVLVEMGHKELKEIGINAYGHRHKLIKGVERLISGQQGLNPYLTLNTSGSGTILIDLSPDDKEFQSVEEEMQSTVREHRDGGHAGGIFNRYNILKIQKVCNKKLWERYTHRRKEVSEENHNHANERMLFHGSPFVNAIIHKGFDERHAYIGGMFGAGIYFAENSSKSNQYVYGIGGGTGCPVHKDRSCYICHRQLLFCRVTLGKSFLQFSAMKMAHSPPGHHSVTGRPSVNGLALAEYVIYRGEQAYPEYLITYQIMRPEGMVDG
Test: Modified TNKS2 Assay 3 (BPS kit #80578, biotin-NAD+, 96 well)
Assay type: biochemical
Conditions: human TNKS2, BPS kit #80578, 96 well
How it was run: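 Commercial kit assay measuring TNKS2-catalysed incorporation of biotin-labelled NAD+ into a protein substrate, detected by streptavidin-HRP chemiluminescence. Run per manufacturer's protocol; IC50 is the concentration halving the normalised signal.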

| IC50 [nM] | Compound |
| --- | --- |
| 250 | O=C(Nc1ccc(NC(=O)c2[nH]cnc2C(=O)N2CC3(COC3)C2)cc1)c1cc(F)c(F)cc1Cl [Example 52, N-{4-[(2-chloro-4,5-difluorobenzoyl)amino]phenyl}-4-(2-oxa-6-azaspiro[3.3]hept-6-ylcarbonyl)-1H-imidazole-5-carboxamide] |
| < 0.5 | C[C@@H]1CCCCN1CCNC(=O)c1[nH]cnc1C(=O)Nc1ccc(NC(=O)c2ccc(F)cc2Cl)cc1 [Example 267, N^4-{4-[(2-chloro-4-fluorobenzoyl)amino]phenyl}-N^5-{2-[(2R)-2-methylpiperidin-1-yl]ethyl}-1H-imidazole-4,5-dicarboxamide] |
| 10 | CN(C)CCNC(=O)c1nc[nH]c1C(=O)Nc1ccc(NC(=O)c2ccc(F)cc2Cl)cc1 [Example 22, N^4-{4-[(2-chloro-4-fluorobenzoyl)amino]phenyl}-N^5-[2-(dimethylamino)ethyl]-1H-imidazole-4,5-dicarboxamide] |
| 1 | C[C@@H]1CCCN(CCNC(=O)c2[nH]cnc2C(=O)Nc2ccc(NC(=O)c3ccc(F)cc3Cl)cc2)C1 [Example 278, N^4-{4-[(2-chloro-4-fluorobenzoyl)amino]phenyl}-N^5-{2-[(3R)-3-methylpiperidin-1-yl]ethyl}-1H-imidazole-4,5-dicarboxamide] |
| 5 | Cc1nc(C(=O)Nc2ccc(NC(=O)c3ccc(F)cc3Cl)cc2)c(C(=O)NCCN2CCCCC2)[nH]1 [Example 67, N^4-{4-[(2-chloro-4-fluorobenzoyl)amino]phenyl}-2-methyl-N^5-[2-(piperidin-1-yl)ethyl]-1H-imidazole-4,5-dicarboxamide] |
| 3 | CNC(=O)c1nc[nH]c1C(=O)Nc1ccc(NC(=O)c2ccc(F)cc2I)cc1 [Example 61, N^5-{4-[(4-fluoro-2-iodobenzoyl)amino]phenyl}-N^4-methyl-1H-imidazole-4,5-dicarboxamide] |
| 10 | CNC(=O)c1nc[nH]c1C(=O)Nc1ccc(NC(=O)c2ccc(S(C)(=O)=O)cc2Cl)cc1 [Example 55, N^5-(4-{[2-chloro-4-(methylsulfonyl)benzoyl]amino}phenyl)-N^4-methyl-1H-imidazole-4,5-dicarboxamide] |
| 10 | O=C(Nc1ccc(NC(=O)c2[nH]cnc2C(=O)NC2CC2)cc1)c1cc(F)c(F)cc1Cl [Example 51, N^5-{4-[(2-chloro-4,5-difluorobenzoyl)amino]phenyl}-N^4-cyclopropyl-1H-imidazole-4,5-dicarboxamide] |
| 10 | CC(CN1CCOCC1)NC(=O)c1[nH]cnc1C(=O)Nc1ccc(NC(=O)c2ccc(F)cc2Cl)cc1 (single isomer, unassigned; enantiomer 2) [Example 270, N^4-{4-[(2-chloro-4-fluorobenzoyl)amino]phenyl}-N^5-[1-(morpholin-4-yl)propan-2-yl]-1H-imidazole-4,5-dicarboxamide (enantiomer 2)] |
| 60 | CNC(=O)c1nc[nH]c1C(=O)Nc1ccc(NC(=O)c2ccc(F)cc2Br)cc1 [Example 56, N^5-{4-[(2-bromo-4-fluorobenzoyl)amino]phenyl}-N^4-methyl-1H-imidazole-4,5-dicarboxamide] |

| Compound | IC50 [nM] |
| --- | --- |
| O=C(Nc1ccc(NC(=O)c2[nH]cnc2C(=O)NCCN2CCCCC2)cc1)c1ccc(F)cc1Cl [Example 32, N^4-{4-[(2-chloro-4-fluorobenzoyl)amino]phenyl}-N^5-[2-(piperidin-1-yl)ethyl]-1H-imidazole-4,5-dicarboxamide] | 1 |
